Tests used:
[1] = Calcemic effects: serum ionized calcium in 1α-hydroxylase knock out mice; assay type: in vivo; settings: 1α-OH KO mice
Experimental: We performed short-term (24 hours) and long-term (7 days) in vivo experiments comparing the calcemic effect of compound 10 (aka VDRA) to an equivalent dose of calcitriol.
For this study, we used 1α-hydroxylase (1α-OH) knock out (KO) mice, which lack 1α-OH, an enzyme that converts 25(OH)VitD3 to the hormonally active form, 1,25-dihydroxyvitamin D3 (1,25(OH)2VitD3) or calcitriol. These mice are designed to have a low vitamin D level at baseline and are hypocalcemic.
For the short term experiment, we administered 0.6 μg/kg (therapeutic dose) and 3 μg/kg (supratherapeutic dose) of vehicle, calcitriol or compound 10, and then measured serum calcium level 24 hours after administration.
For the long-term experiment, we administered 0.6 μg/kg of vehicle, calcitriol or compound 10 for one week. We administered the drugs on Wednesday, Friday, and Monday, and measured serum calcium level on the following Tuesday.
Serum ionized calcium levels were measured using clinical grade iSTAT system (Abbott laboratories).

[2] = target: T1, VDR (GAL4-DBD/VDR-LBD fusion protein in HEK293T cells) (Homo sapiens, UniProt P11473); test: GeneBLAzer cell-based VDR assay (VDR-UAS-bla HEK 293T, beta-lactamase reporter); settings: agonist or antagonist at VDR; compounds of formula (I) tested as mixture of diastereomers
T1 construct: the targeting construct (GAL4-DBD/VDR-LBD) fusion protein engineered in a HEK293T cell line containing 7XUAS-bla; host or cells: GeneBLAzer VDR-UAS-bla HEK 293T cells
T1 sequence (P11473 127-423 limits assumed): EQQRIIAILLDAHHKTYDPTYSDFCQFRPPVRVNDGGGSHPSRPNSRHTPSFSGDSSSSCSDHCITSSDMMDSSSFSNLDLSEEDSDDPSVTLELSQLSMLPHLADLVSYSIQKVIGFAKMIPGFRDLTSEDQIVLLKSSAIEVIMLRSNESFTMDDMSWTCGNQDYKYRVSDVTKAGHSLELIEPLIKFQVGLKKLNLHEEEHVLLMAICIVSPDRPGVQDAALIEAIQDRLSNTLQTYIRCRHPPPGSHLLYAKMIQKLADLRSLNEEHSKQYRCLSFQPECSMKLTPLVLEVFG
Text: High throughput assay validation of the top ranked unique molecules from each of three PDB conformations on the basis of docking score (glide score+ionization state penalty). From this priority list 200 of the best ranked molecules, following ADMET evaluation, were purchased and subjected to binding assays. The compounds of formula (I) were obtained and tested as a mixture of diastereomers.
To determine which compounds identified by virtual screens are actually capable of regulating the transcriptional profile of VDR, we performed GeneBLAzer® Cell-Based VDR Assay (kit was bought from Invitrogen and assay performed as per instructions). Upon binding of a VDR agonist to the targeting construct (GAL4-DBD/VDR-LBD) fusion protein engineered in a HEK293T cell line containing 7XUAS-bla, a transcriptional cascade is initiated that produces β-lactamase (BLA). In the presence of the BLA LiveBLAzer™ substrate, cells expressing BLA will fluoresce blue (460 nm), while those not expressing BLA will fluoresce green (530 nm); higher […] ratio indicating the activation of VDR, whereas in presence of calcitriol (potent agonist) diminishing of this ratio indicates an antagonist behavior of the ligand. The agonist and antagonist abilities of CADD-selected compounds were determined in six-point concentration profile and compared with vehicle.
GeneBLAzer® VDR-UAS-bla HEK 293T cells were purchased from Invitrogen (Cat# K1700). The cells were cultured in growth medium in a humidified (37° C./5% CO2) incubator following the manufacture's instruction. Test compounds (ChemBridge, San Diego, Calif.) and Calcitriol (1α,25-Dihydroxyvitamin D3, Sigma) were dissolved in 100% DMSO(Sigma) at 1000-fold stock concentration and stored at −20° C., which were diluted in assay medium immediately prior to use. LiverBLAzer-FRET B/G loading kit was purchased from Invitrogen.
The GeneBLAzer® VDR-UAS-bla HEK 293T cell-based assay was used to screen 200 compounds for activity at the vitamin D receptor. The assay was run in triplicate following the manufacture's instruction. Briefly, 2×10^4 cells in 32 μl assay medium were added to each well of a 384-well black-wall assay plate (Corning Incorporated, Cat#3712). To each well was added 8 al of compound solution diluted in assay medium, the cells were incubated in a humidified (37° C./5% CO2) incubator for 5 hours. The cell-free wells (containing 32 μl assay medium only) and unstimulated cell wells were treated in parallel with the same concentration of DMSO in assay medium, which were used as background controls and blank controls, respectively. Calcitriol was used as a positive control. To each well was added 8 μl of LiverBLAzer-FRET B/G substrate mixture. The plate was covered with plate sealer and incubated at room temperature for 2 hours in the dark. Fluorescence emission was measured on SpectraMax plate reader at 460 nm and 530 nm with excitation set to 409 nm. After subtraction of background, the average value at 460 nm was divided by the average value at 530 nm to obtain the 460/530 ratio.

[3] = tested on: adult rat cardiomyocytes (ARCMs); test: Phenylephrine-induced hypertrophy in adult rat cardiomyocytes in vitro (ANP level); assay type: cell-based; settings: pre-treated 24 hours, then PE (100 μM) for 48 hours
Experimental: We used adult rat cardiomyocytes (ARCMs) in these studies because heart failure is predominantly a disease of the adult heart. ARCM cultures were prepared from the hearts of female Sprague-Dawley rats by enzymatic dissociation using 0.3% collagenase. Each heart yields about 3-4×10^6 viable ventricular cardiomyocytes. Freshly isolated adult cardiomyocyte cultures contain >90% rod-shaped myocytes and less than 1% of the cells are non-myocytes. The cells were used within 24 hours of plating.
We examined how the response of cardiomyocytes to specific hypertrophic stimulus, phenylephrine (PE) is modulated by pretreatment with compound 10 as compared to known activated vitamin D analog, paricalcitol (PC). In this experiment, ARCM was pre-treated with vehicle, compound 10 (different doses) or paricalcitol ([…]) for 24 hours. The cells were then exposed to PE (100 μM) or vehicle for 48 hours. After exposing the cells to hypertrophic stimulation for 48 hours, they were collected and analyzed for several well-established parameters of cardiac hypertrophy, such as tissue atrial natriuretic peptide (ANP) level.

[4] = Phenylephrine (PE) induced cardiac hypertrophy in mice; assay type: in vivo; settings: PE 30 mg/kg/day via osmotic pump 7 days; compound 60 ng/kg 3×/week intraperitoneally
Experimental: FIGS. 5A-5C are bar graphs depicting the anti-hypertrophic potential of compound 10 (aka VDRA) in phenylephrine (PE) induced cardiac hypertrophy in mice (see Example 6). […] Mice were infused with PE (30 mg/kg/day) via osmotic pump for 7 days. In FIGS. 5A-5C (i) Con=control group with the same amount of saline infusion by osmotic pump; (ii) Vehicle or VDRA ([…]) were injected 3×/week intraperitoneally; (iii) total volume injected=50 μL/animal/injection; (iv) *=p<0.05 vs Control; (v) **=p<0.05 vs Vehicle; and (vi) N=4.
The anti-hypertrophic potential of compound 10 (aka VDRA) in phenylephrine (PE) induced cardiac hypertrophy in mice was evaluated in vivo. WT mice were infused with phenylephrine (PE) (30 mg/kg/day) via osmotic pump for 7 days. After 7 days, the mice were sacrificed, organ weighed, and hearts were obtained for mRNA processing. Vehicle or compound 10 (60 ng/kg) were injected 3×/week intraperitoneally (total volume injected=50 μL/animal/injection).

[5] = Inhibition of hyperparathyroidism: serum PTH in 1α-hydroxylase knock out mice; assay type: in vivo; settings: 0.6 μg/kg three times a week; 1α-OH KO mice; serum PTH ELISA
Text: We performed long-term (7 days) in vivo experiments comparing the parathyroid hormone (PTH) levels following administration of compound 10 (aka VDRA) to an equivalent dose of paricalcitol (PC), a VDR agonist used to treat secondary hyperparathyroidism.
For this study, we used 1α-hydroxylase (1α-OH) knock out (KO) mice, which lack 1α-OH, an enzyme that converts 25(OH)VitD3 to the hormonally active form, 1,25-dihydroxyvitamin D3 (1,25(OH)2VitD3). These mice are designed to have a low vitamin D level at baseline and are hypocalcemic.
We administered 0.6 μg/kg of compound 10 or paricalcitol three times a week (Mon, Wed, Fri) for three weeks. Serum PTH level was measured using a PTH (intact, mouse) ELISA immunoassay (Alpco, Salem, Mass.).

For CCSCCOC(=O)C1=C(C)NC2=C(C(=O)CC(c3ccc(Cl)cc3)C2)C1c1cccc(OC)c1 (centres unmarked) [Compound 10], the “increase in serum calcium level compared to the vehicle, long term” value ([1]; 0.6 μg/kg for one week (three administrations)) was “did not show any increase”, the “increase in serum calcium level compared to the vehicle, short term” value ([1]; 24 hours after administration, 0.60 and 3.0 μg/kg doses) was “did not show significant increase” and the Activity [2] was “Agonist”. For the same compound, the “anti-hypertrophic effect (ANP level)” value [3] was “significant anti-hypertrophic effect”, the “PE-induced ANF (atrial natriuretic factor) activation in left ventricular tissue (mRNA)” value [4] was “effectively suppressed” and the “PE-induced heart weight/body weight (HW/BW) ratio” value [4] was “effectively blocked”. For the same compound, the “PE-induced lung weight/BW (LW/BW) ratio” value [4] was “effectively blocked” and the PTH levels [5] was “significantly reduced”.
